Laboratory results reported in publication PMC5908784, “Extracellular loops 2 and 3 of the calcitonin receptor selectively modify agonist binding and efficacy” (Biochemical Pharmacology, 2018).
Residue numbers refer to the chain shown, from its start. Where a SMILES comes first, the peptide text is derived from it. Bridges are numbered along the chain shown (N, C = ends).

How the values were obtained:
Assay in all cases: cAMP accumulation
Format in all cases: cell-based
Conditions in all cases: mean ± S.E.M.; for Emax: cAMP maximal response, SEM; for EC50: cAMP, CV1-FlpIn cells, 30 min, IBMX
hCTR I371A = biological target: T1, hCTR I371A (Homo sapiens, UniProt P30988, I371A)
T1 construct: c-Myc (N); expressed in transfected cells
T1 sequence (P30988 25-474 I371A): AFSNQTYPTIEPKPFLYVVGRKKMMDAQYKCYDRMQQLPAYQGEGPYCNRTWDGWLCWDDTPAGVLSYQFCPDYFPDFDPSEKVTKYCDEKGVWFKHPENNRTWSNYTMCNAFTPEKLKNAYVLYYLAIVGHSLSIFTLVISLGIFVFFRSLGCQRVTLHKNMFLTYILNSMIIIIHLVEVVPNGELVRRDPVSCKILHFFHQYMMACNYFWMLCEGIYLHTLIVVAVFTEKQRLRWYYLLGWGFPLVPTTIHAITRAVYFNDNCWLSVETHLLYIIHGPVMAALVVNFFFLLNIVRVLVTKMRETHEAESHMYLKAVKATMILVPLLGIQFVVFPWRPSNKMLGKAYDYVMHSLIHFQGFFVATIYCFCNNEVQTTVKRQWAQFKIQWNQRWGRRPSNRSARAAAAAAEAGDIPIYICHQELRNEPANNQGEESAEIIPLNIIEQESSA
Protocol: (§1) Cells (2.5 × 10^4 cells/well) were seeded into 96-well plates and incubated overnight. Cells were stimulated with increasing concentrations of ligands for 30 min in the presence of IBMX. The liquid was discarded, changed to absolute ethanol and volatilized to dryness at room temperature. […] Data were normalized to the response of 100 μM forskolin.
(§2) Data were corrected for radioligand occupancy using the Cheng-Prusoff equation in Prism; as such data are reported as pKi. Emax and EC50 were estimated from concentration-response curves using with a 3-parameter logistic equation in Prism (v7). These values are a composite of functional affinity, efficacy and stimulus response coupling. […] Significance was accepted at P < 0.05.

hCTR L298A = biological target: T2, hCTR L298A (Homo sapiens, UniProt P30988, L298A)
T2 construct: c-Myc (N); expressed in transfected cells
T2 sequence (P30988 25-474 L298A): T1 sequence (P30988 25-474 I371A) with L274A, A347I
Protocol: as §1, §2

hCTR N286A = biological target: T3, hCTR N286A (Homo sapiens, UniProt P30988, N286A)
T3 construct: c-Myc (N); expressed in transfected cells
T3 sequence (P30988 25-474 N286A): T1 sequence (P30988 25-474 I371A) with N262A, A347I
Protocol: as §1, §2

hCTR N288A = biological target: T4, hCTR N288A (Homo sapiens, UniProt P30988, N288A)
T4 construct: expressed in transfected cells
T4 sequence (P30988 25-474 N288A): T1 sequence (P30988 25-474 I371A) with N264A, A347I
Protocol: as §1, §2

hCTR S364A = biological target: T5, hCTR S364A (Homo sapiens, UniProt P30988, S364A)
T5 construct: c-Myc (N); expressed in transfected cells
T5 sequence (P30988 25-474 S364A): T1 sequence (P30988 25-474 I371A) with S340A, A347I
Protocol: as §1, §2

| Structure (SMILES) | Emax (hCTR I371A) | Emax (hCTR L298A) | Emax (hCTR N286A) | Emax (hCTR N288A) | Emax (hCTR S364A) | EC50 (hCTR I371A) | EC50 (hCTR L298A) | EC50 (hCTR N286A) | EC50 (hCTR N288A) | EC50 (hCTR S364A) |
| --- | --- | --- | --- | --- | --- | --- | --- | --- | --- | --- |
| CC(C)C[C@H](NC(=O)[C@H](CCCCN)NC(=O)CNC(=O)[C@H](CC(C)C)NC(=O)[C@@H](NC(=O)[C@@H]1CSSC[C@H](N)C(=O)N[C@@H](CO)C(=O)N[C@@H](CC(N)=O)C(=O)N[C@@H](CC(C)C)C(=O)N[C@@H](CO)C(=O)N[C@@H]([C@@H](C)O)C(=O)N1)C(C)C)C(=O)N[C@@H](CO)C(=O)N[C@@H](CCC(N)=O)C(=O)N[C@@H](CCC(=O)O)C(=O)N[C@@H](CC(C)C)C(=O)N[C@@H](Cc1c[nH]cn1)C(=O)N[C@@H](CCCCN)C(=O)N[C@@H](CC(C)C)C(=O)N[C@@H](CCC(N)=O)C(=O)N[C@H](C(=O)N[C@@H](Cc1ccc(O)cc1)C(=O)N1CCC[C@H]1C(=O)N[C@@H](CCCNC(=N)N)C(=O)N[C@H](C(=O)N[C@@H](CC(N)=O)C(=O)N[C@H](C(=O)NCC(=O)N[C@@H](CO)C(=O)NCC(=O)N[C@H](C(=O)N1CCC[C@H]1C(N)=O)[C@@H](C)O)[C@@H](C)O)[C@@H](C)O)[C@@H](C)O [sCT] | 28 ± 2% | 112 ± 9% | 103 ± 6% | 69 ± 5% | 102 ± 7% |  |  |  |  |  |
| CC(C)C[C@H](NC(=O)[C@H](CC(N)=O)NC(=O)[C@H](CC(N)=O)NC(=O)[C@H](CO)NC(=O)[C@H](CO)NC(=O)[C@H](CCCNC(=N)N)NC(=O)[C@@H](NC(=O)[C@H](CC(C)C)NC(=O)[C@H](Cc1ccccc1)NC(=O)[C@H](CC(N)=O)NC(=O)[C@H](C)NC(=O)[C@H](CC(C)C)NC(=O)[C@H](CCCNC(=N)N)NC(=O)[C@H](CCC(N)=O)NC(=O)[C@@H](NC(=O)[C@H](C)NC(=O)[C@@H]1CSSC[C@H](NC(=O)[C@@H](N)CCCCN)C(=O)N[C@@H](CC(N)=O)C(=O)N[C@@H]([C@@H](C)O)C(=O)N[C@@H](C)C(=O)N[C@@H]([C@@H](C)O)C(=O)N1)[C@@H](C)O)C(C)C)C(=O)NCC(=O)N1CCC[C@H]1C(=O)N[C@H](C(=O)N[C@@H](CC(C)C)C(=O)N1CCC[C@H]1C(=O)N1CCC[C@H]1C(=O)N[C@H](C(=O)N[C@@H](CC(N)=O)C(=O)N[C@H](C(=O)NCC(=O)N[C@@H](CO)C(=O)N[C@@H](CC(N)=O)C(=O)N[C@H](C(=O)N[C@@H](Cc1ccc(O)cc1)C(N)=O)[C@@H](C)O)C(C)C)[C@@H](C)O)C(C)C [rAmy] | 47 ± 7% | 117 ± 13% | 97 ± 15% | 64 ± 8% | 56 ± 7% |  |  |  |  |  |
| CC[C@H](C)[C@H](NC(=O)[C@H](C)NC(=O)[C@@H](NC(=O)[C@H](CCC(N)=O)NC(=O)[C@@H]1CCCN1C(=O)[C@H](Cc1ccccc1)NC(=O)[C@@H](NC(=O)[C@H](Cc1c[nH]cn1)NC(=O)[C@H](Cc1ccccc1)NC(=O)[C@H](CCCCN)NC(=O)[C@H](CC(N)=O)NC(=O)[C@H](Cc1ccccc1)NC(=O)[C@H](CC(=O)O)NC(=O)[C@H](CCC(N)=O)NC(=O)[C@@H](NC(=O)[C@H](Cc1ccc(O)cc1)NC(=O)[C@@H](NC(=O)CNC(=O)[C@H](CC(C)C)NC(=O)[C@H](CCSC)NC(=O)[C@@H]1CSSC[C@H](N)C(=O)NCC(=O)N[C@@H](CC(N)=O)C(=O)N[C@@H](CC(C)C)C(=O)N[C@@H](CO)C(=O)N[C@@H]([C@@H](C)O)C(=O)N1)[C@@H](C)O)[C@@H](C)O)[C@@H](C)O)[C@@H](C)O)C(=O)NCC(=O)N[C@H](C(=O)NCC(=O)N[C@@H](C)C(=O)N1CCC[C@H]1C(N)=O)C(C)C [hCT] | 24 ± 2.7% | 103 ± 6% | 126 ± 6% | 117 ± 10% | 97 ± 9% |  |  |  |  |  |
| CC(C)C[C@H](NC(=O)CNC(=O)[C@H](C)NC(=O)[C@H](CC(C)C)NC(=O)[C@H](CCCNC(=N)N)NC(=O)[C@H](Cc1cnc[nH]1)NC(=O)[C@@H](NC(=O)[C@@H](NC(=O)[C@@H]1CSSC[C@H](NC(=O)[C@H](C)N)C(=O)N[C@@H](CC(=O)O)C(=O)N[C@@H]([C@@H](C)O)C(=O)N[C@@H](C)C(=O)N[C@@H]([C@@H](C)O)C(=O)N1)C(C)C)[C@@H](C)O)C(=O)N[C@@H](CC(C)C)C(=O)N[C@@H](CO)C(=O)N[C@@H](CCCNC(=N)N)C(=O)N[C@@H](CO)C(=O)NCC(=O)NCC(=O)N[C@H](C(=O)N[C@H](C(=O)N[C@@H](CCCCN)C(=O)N[C@@H](CC(N)=O)C(=O)N[C@@H](CC(N)=O)C(=O)N[C@@H](Cc1ccccc1)C(=O)N[C@H](C(=O)N1CCC[C@H]1C(=O)N[C@H](C(=O)N[C@@H](CC(N)=O)C(=O)N[C@H](C(=O)NCC(=O)N[C@@H](CO)C(=O)N[C@@H](CCCCN)C(=O)N[C@@H](C)C(=O)N[C@@H](Cc1ccccc1)C(N)=O)C(C)C)[C@@H](C)O)C(C)C)C(C)C)C(C)C [hαCGRP] | 58 ± 15% | 109 ± 17% | 46 ± 16% | 118 ± 17% | 83 ± 10% | 132 nM | 33.9 nM | 14.1 nM | 10.2 nM | 16.6 nM |
| CSCC[C@H](NC(=O)CNC(=O)[C@H](CO)NC(=O)[C@H](Cc1ccccc1)NC(=O)[C@H](CCCNC(=N)N)NC(=O)[C@H](Cc1c[nH]cn1)NC(=O)[C@H](Cc1ccccc1)NC(=O)[C@H](CC(N)=O)NC(=O)[C@H](CC(N)=O)NC(=O)[C@H](CC(C)C)NC(=O)[C@H](CC(N)=O)NC(=O)[C@H](CCCNC(=N)N)NC(=O)[C@H](Cc1c[nH]c2ccccc12)NC(=O)[C@H](Cc1ccc(O)cc1)NC(=O)[C@H](C)NC(=O)[C@H](CO)NC(=O)[C@H](CC(C)C)NC(=O)[C@@H](NC(=O)[C@@H]1CSSC[C@H](N)C(=O)N[C@@H](CO)C(=O)N[C@@H](CC(N)=O)C(=O)N[C@@H](CC(C)C)C(=O)N[C@@H](CO)C(=O)N[C@@H]([C@@H](C)O)C(=O)N1)C(C)C)C(=O)NCC(=O)N[C@@H](Cc1ccccc1)C(=O)NCC(=O)N1CCC[C@H]1C(=O)N[C@@H](CCC(=O)O)C(=O)N[C@H](C(=O)N1CCC[C@H]1C(N)=O)[C@@H](C)O [pCT] (H-CSNLSTCVLSAYWRNLNNFHRFSGMGFGPETP-NH2; disulfide 1-7) | 35 ± 5% | 118 ± 7% | 84 ± 6% | 105 ± 10% | 166 ± 16% | 0.0794 nM | 0.0631 nM | 0.2 nM | 0.0631 nM | 0.603 nM |
